What is called IC50 is the concentration that gives 50% inhibition. The term inhibition denotes the drop in the measured response relative to a control, in per cent.

The text below walks through data of ChEMBL document CHEMBL5325464, “Design, synthesis and evaluation the bioactivities of novel 1,3-dimethyl-6-amino-1H-indazole derivatives as anticancer agents” (Bioorg Med Chem, 2023).

One series deals with MCF7. The experiment in a line: Cytotoxicity against human MCF7 cells assessed as reduction of cell viability at 25 uM measured after 24 hrs by MTT assay. It is filed as functional. (Formazan colour is commonly taken as a measure of viable cells.)
Series [1] relates to FaDu. The experiment in a line: Cytotoxicity against human FaDu cells assessed as reduction of cell viability at 20 uM measured after 24 hrs by MTT assay. It is filed as functional.
For series [2], the system named is FaDu. The series can be described thus: Cytotoxicity against human FaDu cells assessed as reduction of cell viability measured after 24 hrs by MTT assay. Format: functional, cell-based.
A short description of series [3]: Cytotoxicity against human YD-15 cells assessed as reduction of cell viability at 50 uM measured after 24 hrs by MTT assay. Format: functional.
Series [4] can be described thus: Cytotoxicity against human DPSC cells assessed as reduction of cell viability at 20 uM measured after 24 hrs by MTT assay. It is filed as toxicity, cell-based.
For series [5], the target named is T1, Indoleamine 2,3-dioxygenase 1 (Homo sapiens, UniProt P14902). The experiment in a line: Inhibition of human IDO1 expressed in human FaDu cells at IC50 incubated for 24 hrs by ELISA assay. Format: cell-based. (In general: An ELISA detects its analyte on a solid surface through an enzyme-linked reagent.)
Target sequence in this assay (P14902 whole entry, looked up): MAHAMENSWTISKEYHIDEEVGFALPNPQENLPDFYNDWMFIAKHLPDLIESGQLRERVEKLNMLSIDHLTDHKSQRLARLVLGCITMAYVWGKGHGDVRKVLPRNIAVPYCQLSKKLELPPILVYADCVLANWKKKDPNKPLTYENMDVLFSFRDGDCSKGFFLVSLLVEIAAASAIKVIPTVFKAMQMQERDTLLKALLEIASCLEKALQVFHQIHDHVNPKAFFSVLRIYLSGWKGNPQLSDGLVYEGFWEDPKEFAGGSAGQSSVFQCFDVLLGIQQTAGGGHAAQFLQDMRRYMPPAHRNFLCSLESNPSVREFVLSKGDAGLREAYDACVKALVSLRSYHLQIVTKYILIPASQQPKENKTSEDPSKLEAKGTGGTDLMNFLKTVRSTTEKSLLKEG
Series [6] has as its target T1, Indoleamine 2,3-dioxygenase 1. The experiment in a line: Inhibition of human recombinant IDO1 incubated for 1 hr by HPLC analysis.
Target sequence in this assay (P14902 whole entry): as the sequence (P14902 whole entry, looked up) above
Series [7] has as its system FaDu. The series can be described thus: Induction of apoptosis in human FaDu cells assessed as nuclear condensation upto 3 uM measured after 24 hrs by DAPI staining based fluorescence microscopic analysis. It is filed as functional, cell-based.
Series [8] has as its target T1, Indoleamine 2,3-dioxygenase 1. The series can be described thus: Inhibition of human IDO1 expressed in human FaDu cells at 2.78 uM incubated for 24 hrs by ELISA assay relative to control. Format: cell-based.
Target sequence in this assay (P14902 whole entry, looked up): as above
For series [9], the system named is FaDu. The series can be described thus: Induction of apoptosis in human FaDu cells assessed as activation of cleaved caspase 3 level upto 3 uM measured after 24 hrs by Western blot analysis. Format: functional, cell-based. (In general: A western blot detects proteins with antibodies after separation by electrophoresis.)
Series [10] relates to FaDu. The series can be described thus: Downregulation of MMP9 expression in human FaDu cells at 1 to 3 uM incubated for 24 hrs by Western blot analysis. It is filed as functional, cell-based. Particulars: dose 1-3 µM.
Series [11] relates to FaDu. The series can be described thus: Inhibition of cell migration in human FaDu cells measured after 24 hrs by wound healing assay. It is filed as functional, cell-based. Particulars: dose 1-3 µM.
Series [12] can be described thus: Activation of ERK pathway in human FaDu cells assessed as decrease in JNK phosphorylation upto 3 uM measured after 24 hrs by Western blotting analysis. It is filed as cell-based. Particulars: filed as activator.
Series [13] addresses T1, Indoleamine 2,3-dioxygenase 1. The experiment in a line: Inhibition of human IDO1 expressed in human FaDu cells incubated for 24 hrs by Western blotting analysis. Format: cell-based.
Target sequence in this assay (P14902 whole entry, looked up): as above
Series [14] is described as follows: Activation of ERK pathway in human FaDu cells assessed as increase in ERK phosphorylation upto 3 uM measured after 24 hrs by Western blotting analysis. It is filed as cell-based. The settings on record: filed as activator.
The test system of series [15] is FaDu. The experiment in a line: Induction of apoptosis in human FaDu cells assessed as activation of PARP level upto 3 uM measured after 24 hrs by Western blot analysis. Format: functional, cell-based.
Series [16] can be described thus: Activation of ERK pathway in human FaDu cells assessed as effect on p38 phosphorylation upto 3 uM measured after 24 hrs by Western blotting analysis. It is filed as cell-based.
The subject of series [17] is FaDu. The series can be described thus: Induction of apoptosis in human FaDu cells assessed as nuclear fragmentation upto 3 uM measured after 24 hrs by DAPI staining based fluorescence microscopic analysis. Format: functional, cell-based.

Structures are written as SMILES. Calls of active or inactive are those of the source. The calls are words filed in the database; no cut-off is given here.

For the compound `Cc1nn(C)c2cc(NCc3ccc(N(C)C)cc3)ccc12`, the Activity in the series on MCF7 is 84.75%; in the series on FaDu [1] it was 93.5%; in series [3], 26.86%; in series [4], 91.6%. Also, in the series on FaDu [2], the 50% inhibitory concentration (IC50) is more than 50 µM.
In the same order, the values of `COc1cc(CNc2ccc3c(C)nn(C)c3c2)cc(OC)c1OC` are 92.8%, 49.4%, 86.71%, 82.54% and 19.9 µM.
The like results for `Cc1nn(C)c2cc(NCc3ccc(O)cc3)ccc12` were, in that order, 100.39%, 87.72%, 98.59%, 94.7% and more than 50 µM.
As for `Cc1nn(C)c2cc(NCc3ccc([N+](=O)[O-])cc3)ccc12`, the Activity is listed as 98.33% in the series with MCF7, 7.77% in the series with FaDu [1], 94.88% in series [3] and 100.99% in series [4]. In addition, the IC50 in the series with FaDu [2] worked out at 11.2 µM. The “IDO1 inhibition (qualitative)” value in series [5] is “Active”.
On to `O=C(NNc1ccccc1)c1n[nH]c2cc(Br)ccc12`, for which the IC50 in series [6] stood at 0.72 µM.
Turning to `COc1ccc(CNc2ccc3c(C)nn(C)c3c2)cc1O`, the Activity in the series with MCF7 is on record as 95.71%; in the series on FaDu [1], 7.26%; in series [3] it was 99.01%; in [4] it was 86.87%. The IC50 in the series on FaDu [2] is 6.19 µM. Further, the “IDO1 inhibition (qualitative)” value in [5] was “Active”.
Consider `Cc1nn(C)c2cc(NCc3ccncc3)ccc12`, for which the Activity in the series on MCF7 was 93.76%; in the series with FaDu [1] it was 86.72%; in series [3], 97.98%; in [4] it was 82.84%. The IC50 in the series with FaDu [2] was more than 50 µM.
In the same order, the values of `COc1ccc(CNc2ccc3c(C)nn(C)c3c2)c(O)c1` are 88.27%, 84.68%, 102.06%, 84.9% and more than 50 µM.
Turning to `Cc1nn(C)c2cc(NCc3ccc(Cl)cc3)ccc12`, the Activity in the series with MCF7 turned out to be 101.58%; in the series on FaDu [1], 8.43%; in [3], 52.82%; in series [4], 84.13%. For the same compound, the half-inhibitory concentration (IC50) in the series on FaDu [2] was 3.57 µM. The “IDO1 inhibition (qualitative)” value in series [5] was “Active”.
Regarding `COc1ccc(CNc2ccc3c(C)nn(C)c3c2)c(OC)c1OC`, the Activity in the series on MCF7 worked out at 104.07%; in the series with FaDu [1], 7.8%; in series [3], 101.41%; in series [4], 90.13%. The IC50 with FaDu [2] is 1.87 µM. In [5], the “IDO1 inhibition (qualitative)” value is “Active”.
Regarding `Cc1nn(C)c2cc(NCc3ccc(Br)cc3)ccc12`, the outcome (in the series on FaDu [7]; in the series on FaDu [9]; in the series on FaDu [10]; in series [12]; in series [14]; in the series with FaDu [15]) was Active. The result in the series with FaDu [17] was Active. In addition, the inhibition is 45.7% in series [8], “Dose-Dependent Effect” in the series on FaDu [11] and “Dose-Dependent Effect” in series [13]. Further, the Activity is 102.61% in the series with MCF7, 8.29% in the series with FaDu [1], 7.87% in series [3] and 94.66% in series [4]. Further, the half-maximal inhibitory concentration (IC50) in the series on FaDu [2] was 2.78 µM. For the same compound, the result in [16] was inactive.
Consider `Cc1nn(C)c2cc(NCc3ccc(F)c(F)c3)ccc12`, for which the Activity in the series on MCF7 is recorded as 100.45%; in the series on FaDu [1], 8.08%; in series [3] it was 63.3%; in series [4], 90.4%. In the series on FaDu [2], the IC50 came out at 3.49 µM. Moreover, the “IDO1 inhibition (qualitative)” value in series [5] is “Active”.
In the case of `COc1ccc(CNc2ccc3c(C)nn(C)c3c2)cc1`, the Activity amounted to 102.24% in the series on MCF7, 10.4% in the series on FaDu [1], 67.1% in [3] and 91.62% in series [4]. In the series on FaDu [2], the IC50 is 6.67 µM. For the same compound, the “IDO1 inhibition (qualitative)” value in series [5] was “Active”.
